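Method: 48-hour compound exposure of cells in 96-well plates, five concentrations, linear interpolation of endpoints. Abbreviation: GI50, concentration required for 50% inhibition of growth.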 The source made the active and inactive calls. No stated cut-off is given here; in the data, active = GI50 up to about 1.1 µM and inactive = higher.
What was measured:
Experiment in all cases: inhibition of tumour cell growth, NCI panel, 48 h
BT-549 = tested on: BT-549
CCRF-CEM = tested on: CCRF-CEM
DU-145 = tested on: DU-145
EKVX = tested on: EKVX
IGROV-1 = tested on: IGROV-1
K562 = tested on: K562
M14 = tested on: M14
MDA-MB-435 = tested on: MDA-MB-435
MDA-N = tested on: MDA-N
Malme-3M = tested on: Malme-3M
NCI-H226 = tested on: NCI-H226
NCI/ADR-RES = tested on: NCI/ADR-RES
OVCAR-4 = tested on: OVCAR-4
SF-295 = tested on: SF-295
SF-539 = tested on: SF-539
TK-10 = tested on: TK-10
ACHN = tested on: ACHN
HCT-116 = tested on: HCT-116
OVCAR-5 = tested on: OVCAR-5
A498 = tested on: A498

| SMILES | GI50 (BT-549) | GI50 (CCRF-CEM) | GI50 (DU-145) | GI50 (EKVX) | GI50 (IGROV-1) | GI50 (K562) | GI50 (M14) | GI50 (MDA-MB-435) | GI50 (MDA-N) | GI50 (Malme-3M) | GI50 (NCI-H226) | GI50 (NCI/ADR-RES) | GI50 (OVCAR-4) | GI50 (SF-295) | GI50 (SF-539) | GI50 (TK-10) | GI50 (ACHN) | GI50 (HCT-116) | GI50 (OVCAR-5) | GI50 (A498) |
| --- | --- | --- | --- | --- | --- | --- | --- | --- | --- | --- | --- | --- | --- | --- | --- | --- | --- | --- | --- | --- |
| CC1CC(C#N)=C2NCCN2C1=O (stereo not drawn) | > 100 µM (inactive) | > 100 µM (inactive) | > 100 µM (inactive) | > 100 µM (inactive) | > 100 µM (inactive) | > 100 µM (inactive) | 19.4 µM (inactive) | 18.3 µM (inactive) | 16.4 µM (inactive) | 94 µM (inactive) | > 100 µM (inactive) | > 100 µM (inactive) | > 100 µM (inactive) | > 100 µM (inactive) | > 100 µM (inactive) | > 100 µM (inactive) | – | – | – | – |
| CCC1(CC)C(=O)N(C(=O)c2ccc(C)cc2)N(C(=O)c2ccc(C)cc2)C1=O | > 75 µM (inactive) | 33.1 µM (inactive) | > 75 µM (inactive) | 48.6 µM (inactive) | 48.9 µM (inactive) | 40 µM (inactive) | > 75 µM (inactive) | > 75 µM (inactive) | 63.2 µM (inactive) | 14.4 µM (inactive) | > 75 µM (inactive) | 34.2 µM (inactive) | > 75 µM (inactive) | 72.9 µM (inactive) | – | 73.1 µM (inactive) | 26.8 µM (inactive) | 32.2 µM (inactive) | > 75 µM (inactive) | – |
| CSC(=S)Nc1cccc(C)n1 | – | > 100 µM (inactive) | > 100 µM (inactive) | > 100 µM (inactive) | > 100 µM (inactive) | > 100 µM (inactive) | > 100 µM (inactive) | > 100 µM (inactive) | > 100 µM (inactive) | > 100 µM (inactive) | > 100 µM (inactive) | > 100 µM (inactive) | > 100 µM (inactive) | > 100 µM (inactive) | > 100 µM (inactive) | > 100 µM (inactive) | > 100 µM (inactive) | > 100 µM (inactive) | > 100 µM (inactive) | > 100 µM (inactive) |
| Cc1ccc(/N=C/C=C(\Nc2ccc(C)cc2)c2ccc3ccccc3c2)cc1 | 2.33 µM (inactive) | 0.189 µM (active) | 1.15 µM (inactive) | – | 0.541 µM (active) | 0.414 µM (active) | 1.13 µM (inactive) | 0.203 µM (active) | – | 0.238 µM (active) | 1.4 µM (inactive) | 0.445 µM (active) | 0.65 µM (active) | 0.497 µM (active) | 1.21 µM (inactive) | 1.2 µM (inactive) | 0.671 µM (active) | 0.434 µM (active) | 1.45 µM (inactive) | 10.8 µM (inactive) |
| NC(=O)c1cc(N(CCO)CCO)c([N+](=O)[O-])cc1[N+](=O)[O-] | – | > 100 µM (inactive) | > 100 µM (inactive) | > 100 µM (inactive) | > 100 µM (inactive) | > 100 µM (inactive) | > 100 µM (inactive) | > 100 µM (inactive) | > 100 µM (inactive) | > 100 µM (inactive) | > 100 µM (inactive) | > 100 µM (inactive) | > 100 µM (inactive) | > 100 µM (inactive) | > 100 µM (inactive) | > 100 µM (inactive) | > 100 µM (inactive) | > 100 µM (inactive) | > 100 µM (inactive) | > 100 µM (inactive) |
| CCOC(=O)c1c(N=C(S)Nc2ccc(Cl)cc2)sc2c1CCN(C)C2 | 78.9 µM (inactive) | 26.9 µM (inactive) | > 100 µM (inactive) | > 100 µM (inactive) | > 100 µM (inactive) | 61 µM (inactive) | > 100 µM (inactive) | – | > 100 µM (inactive) | – | > 100 µM (inactive) | > 100 µM (inactive) | – | > 100 µM (inactive) | 72.6 µM (inactive) | > 100 µM (inactive) | > 100 µM (inactive) | > 100 µM (inactive) | > 100 µM (inactive) | > 100 µM (inactive) |
| COC(=O)c1cn(CCCCO)nn1 | > 100 µM (inactive) | > 100 µM (inactive) | > 100 µM (inactive) | > 100 µM (inactive) | > 100 µM (inactive) | – | – | > 100 µM (inactive) | > 100 µM (inactive) | > 100 µM (inactive) | > 100 µM (inactive) | > 100 µM (inactive) | > 100 µM (inactive) | > 100 µM (inactive) | > 100 µM (inactive) | > 100 µM (inactive) | > 100 µM (inactive) | > 100 µM (inactive) | – | – |
| O=C(CN1CCCC1=O)CS(=O)(=O)c1ccccc1 | > 100 µM (inactive) | > 100 µM (inactive) | > 100 µM (inactive) | > 100 µM (inactive) | > 100 µM (inactive) | > 100 µM (inactive) | > 100 µM (inactive) | > 100 µM (inactive) | > 100 µM (inactive) | > 100 µM (inactive) | > 100 µM (inactive) | > 100 µM (inactive) | – | > 100 µM (inactive) | > 100 µM (inactive) | > 100 µM (inactive) | > 100 µM (inactive) | > 100 µM (inactive) | > 100 µM (inactive) | – |
| NCCCNc1ccc2c(c1)[n+]([O-])c1ccccc1[n+]2[O-] | 13.6 µM (inactive) | 22.4 µM (inactive) | 27 µM (inactive) | 37.2 µM (inactive) | 12.7 µM (inactive) | 26.4 µM (inactive) | 13.8 µM (inactive) | 31.8 µM (inactive) | – | 17.4 µM (inactive) | 12.3 µM (inactive) | > 100 µM (inactive) | 25 µM (inactive) | 28.8 µM (inactive) | 20.6 µM (inactive) | 28.4 µM (inactive) | 21 µM (inactive) | 17.3 µM (inactive) | 28.4 µM (inactive) | 17.2 µM (inactive) |
| Cc1ccc(NNc2cc(=O)[nH]c(=O)[nH]2)cc1Cl | 41.1 µM (inactive) | 11.1 µM (inactive) | 37 µM (inactive) | – | 13.8 µM (inactive) | 2.99 µM (inactive) | 13.7 µM (inactive) | – | 15.2 µM (inactive) | 17.8 µM (inactive) | 56.9 µM (inactive) | 95.3 µM (inactive) | 14.7 µM (inactive) | 37.5 µM (inactive) | 19.5 µM (inactive) | 19.1 µM (inactive) | 9.42 µM (inactive) | 14.9 µM (inactive) | 73.8 µM (inactive) | > 100 µM (inactive) |
| COC(C)(C)C1=CCC(C)CC1 (stereo not drawn) | > 100 µM (inactive) | – | > 100 µM (inactive) | > 100 µM (inactive) | > 100 µM (inactive) | – | > 100 µM (inactive) | > 100 µM (inactive) | > 100 µM (inactive) | > 100 µM (inactive) | – | – | > 100 µM (inactive) | > 100 µM (inactive) | > 100 µM (inactive) | > 100 µM (inactive) | > 100 µM (inactive) | > 100 µM (inactive) | > 100 µM (inactive) | > 100 µM (inactive) |
| O=C1CCCc2ccc3c(c21)CC1(Cc2cc4c(cc2C1)CCCC4)C3 | 25.1 µM (inactive) | 3.94 µM (inactive) | 20.9 µM (inactive) | 21.1 µM (inactive) | 24.7 µM (inactive) | 6.49 µM (inactive) | 16.9 µM (inactive) | 19.6 µM (inactive) | – | 18.3 µM (inactive) | 17.4 µM (inactive) | 25.9 µM (inactive) | 22.1 µM (inactive) | 29.8 µM (inactive) | 20.3 µM (inactive) | 23.1 µM (inactive) | 16.1 µM (inactive) | 16.1 µM (inactive) | 27.4 µM (inactive) | 37.6 µM (inactive) |
| CC[n+]1[b-](C(C)(C)C)n(/N=C(\C)C(C)(C)C)[b-](C(C)(C)C)[n+]1CC | > 100 µM (inactive) | > 100 µM (inactive) | – | > 100 µM (inactive) | > 100 µM (inactive) | 71.8 µM (inactive) | > 100 µM (inactive) | > 100 µM (inactive) | > 10 µM (inactive) | > 100 µM (inactive) | 72.9 µM (inactive) | 87.1 µM (inactive) | > 100 µM (inactive) | > 100 µM (inactive) | > 100 µM (inactive) | > 100 µM (inactive) | > 100 µM (inactive) | > 100 µM (inactive) | > 100 µM (inactive) | – |
| CC1CC/C(=C\c2ccc(Cl)cc2)c2nc(N)c(C#N)c(-c3ccc(Cl)cc3)c21 (stereo not drawn) | 75.5 µM (inactive) | 23.5 µM (inactive) | – | 80.7 µM (inactive) | 62.8 µM (inactive) | 31.5 µM (inactive) | 57.8 µM (inactive) | 23.9 µM (inactive) | 88.1 µM (inactive) | 13.4 µM (inactive) | 58.6 µM (inactive) | 55.1 µM (inactive) | > 100 µM (inactive) | 44.1 µM (inactive) | 48.8 µM (inactive) | 45.4 µM (inactive) | 42.2 µM (inactive) | 84.9 µM (inactive) | > 100 µM (inactive) | 26.3 µM (inactive) |
| COC(=O)NC1(NC(=O)OC)NC(=O)c2cc(OC)c(OC)c(OC)c2N1 | 22.4 µM (inactive) | 82 µM (inactive) | 32 µM (inactive) | > 100 µM (inactive) | 53.1 µM (inactive) | 12.3 µM (inactive) | 21.8 µM (inactive) | – | 3.15 µM (inactive) | 1.33 µM (inactive) | 31.1 µM (inactive) | 15.1 µM (inactive) | > 100 µM (inactive) | 12.4 µM (inactive) | 23.6 µM (inactive) | 38 µM (inactive) | 86.5 µM (inactive) | 26.1 µM (inactive) | > 100 µM (inactive) | 32.2 µM (inactive) |
| S=C(N/N=C(/c1ccccc1)c1ccccn1)N1CCCCC1 | 1.25 µM (inactive) | < 0.0134 µM (active) | 0.618 µM (active) | < 0.0318 µM (active) | < 0.0164 µM (active) | < 0.0161 µM (active) | 0.001 µM (active) | 0.134 µM (active) | < 0.038 µM (active) | 0.441 µM (active) | 0.134 µM (active) | – | 1.5 µM (inactive) | < 0.031 µM (active) | 0.424 µM (active) | 0.114 µM (active) | < 0.0443 µM (active) | 0.01 µM (active) | 0.0455 µM (active) | 0.407 µM (active) |
